Experimental data taken from article PMC12627862, “Therapeutic targeting of endothelial calcium signaling accelerates the resolution of lung injury” (Signal Transduction and Targeted Therapy, 2025).
Like-named read-outs stand apart in the source and are kept apart here. Starred links: 1 amine or outer side, 2 acyl side, 3 side chain; linkers in the order of their positions; H or OH if unused. Positions of bridges follow the written chain, without caps; N, C: chain ends. Non-standard residues stand in square brackets, D forms with d. Residues, ends and D or L forms follow the SMILES beside them. No end group written: not given here. *: point of attachment. Leu(4,5-dehydro) = C=C(C)C[C@H](N)C(=O)O; Oic = O=C(O)[C@@H]1C[C@@H]2CCCC[C@@H]2N1; d(tBuAla) = CC(C)(C)C[C@@H](N)C(=O)O; dVal(3-OH) = CC(C)(O)[C@@H](N)C(=O)O; tBuAla = CC(C)(C)C[C@H](N)C(=O)O; Myristoyl = CCCCCCCCCCCCCC(=O)*; R5 = C=CCCC[C@@](C)(N)C(=O)O; S5 = C=CCCC[C@](C)(N)C(=O)O; X1 = O=C(CC(O)CN[*:1])[*:2]; 4Amb = NCc1ccc(C(=O)O)cc1; X3 = NCC(O)CC(=O)*

Tests used:
[1] = Aggregation / solubility at 1 mM; type: physicochemical; conditions: summary calls it solubility at 1mM
Protocol: (§1) The solubilities of the synthesized compounds were determined experimentally (Supplementary Table 2). Most compounds were highly soluble at a 1 mM concentration; however, some compounds tended to form aggregates. These compounds were excluded from further studies. In addition, we experimentally determined the lipophilicity of each compound, logP(oct/wat)=log(soluteoct/solutewat ), which is the partition coefficient of a compound between aqueous (water) and lipophilic (octanol) phases (Supplementary Table 2).

[2] = Lipophilicity of peptides, logP(oct/wat); type: physicochemical
Protocol: as §1
Lipophilicity of peptides. Two separate solutions were obtained: an aqueous phosphate buffer with saturated n-octanol, and an n-octanol solution with saturated phosphate buffer. Peptides were then dissolved and diluted in the phosphate buffer. Different partitions were then made with different n-octanol to water ratio before shaking for an hour at room temperature. The aqueous phase and n-octanol were allowed to equilibrate, and each phase was extracted and analyzed for peptide concentrations. The ratio of peptide concentration in n-octanol to that in water is expressed as log(P).

[3] = target: EB3 interactions with IP3R3-GFP (Homo sapiens, UniProt Q9UPY8); assay: Competitive binding: inhibition of EB3 interaction with IP3R3-GFP in vitro; type: biochemical; conditions: for inhibition at 0.25 µM: 250 nM; for Competitive Binding at 250nM (% Inhibition): 0.25 µM
Excerpt: We tested the efficacy of twenty-three compounds in inhibiting EB3 interactions with IP3R3-GFP via an in vitro approach developed by us[12],[13]. […] Guided by NMR studies, we predicted the binding pose of 109 to EB3 via AutoDock Vina[13],[24],[25].

[4] = system: human primary microvascular lung endothelial cells (HLMVECs); assay: Peptide uptake in endothelial cells; type: cell-based
Protocol: We next analyzed the cell-penetrating properties of the selected compounds, hereafter referred to as vascular therapeutics (VT). The rate of uptake of 5’6-FAM (fluorescein)-labeled compounds by human primary microvascular lung endothelial cells (HLMVECs) was determined via confocal fluorescence live-cell imaging. FAM-labeled Myr-EBIN[13] and fluorescein alone were used as positive and negative controls, respectively. The t½ uptake and maximal uptake were determined from changes in the integrated fluorescence intensity over a 30 min period (Fig. 2a and Supplementary Fig. 1a). […] Like Myr-EBIN, compounds VT-107, -108 and -109 presented the highest uptake rates of 92.5 ± 5.0%, 82.5 ± 2.8% and 94.7 ± 4.9%, respectively, whereas the linear compound VT-101 was taken up less efficiently, with an average uptake of 58.4 ± 2.7% (Fig. 2a). […] The t½ uptake, however, varied between the tested compounds (Fig. 2b). The stapled compounds presented the shortest t½ uptake, whereas the linear compounds presented the longest t½ (Fig. 2b).
Peptide uptake in endothelial cells. The rate of peptide uptake by primary human microvascular endothelial cells was measured using 5’6FAM (fluorescein)-labeled peptides and confocal fluorescence live-cell imaging, with fluorescein alone used as a negative control. Changes in intracellular fluorescence for each peptide were monitored over time, and saponin, a detergent, was added at the end of the experiment to induce full uptake of the tested peptides by endothelial cells. The fluorescence intensity inside the cells was tracked over time, and the half-time uptake (t1/2) and maximum uptake were calculated.

[5] = Stability of selected EB3 inhibitors in human blood plasma; type: in vitro ADME
Protocol: Supplementary Table 3. Stability of selected EB3 inhibitors in human blood plasma. The indicated inhibitors were incubated with human plasma at 37 °C and samples were taken at the indicated time points. Plasma proteins were precipitated with ice-cold perchloric acid (60%); the concentration of compounds was measured in supernatant using a liquid chromatography-tandem mass spectrometry (LC-MS/MS). See also Figures 1 and 2.

[6] = Stability at various storage conditions; type: physicochemical; conditions: for amount of peptide remaining after storage: phosphate-buffered sterile saline, 8 days, LC-MS/MS
Protocol: Stability assay of peptides in various storage conditions. Peptides were dissolved and stored in phosphate-buffered sterile saline at -20, 4, 37, and 60°C for 8 days. The amount of peptide remaining after the study was analyzed by LC-MS/MS.
Supplementary Table 5. Stability of selected compounds at various storage conditions. Preliminary accelerated storage stability at various temperature conditions for the selected inhibitors was tested in phosphate-buffered sterile saline at -20 °C, 4 °C, 37 °C and 60 °C for 8 days. See also Figures 1 and 2.

EB3 interactions with IP3R3-GFP, sequence (Q9UPY8 whole entry): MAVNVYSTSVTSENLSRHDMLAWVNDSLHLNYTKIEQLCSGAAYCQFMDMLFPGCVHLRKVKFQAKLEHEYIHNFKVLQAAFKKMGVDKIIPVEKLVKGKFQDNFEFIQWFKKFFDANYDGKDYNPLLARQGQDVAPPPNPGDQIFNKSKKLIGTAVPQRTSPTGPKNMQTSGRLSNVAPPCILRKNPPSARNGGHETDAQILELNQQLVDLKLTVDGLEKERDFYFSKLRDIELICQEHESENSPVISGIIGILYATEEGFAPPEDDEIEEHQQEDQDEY

CC(C)(C)C[C@H](NC(=O)CC(O)CNC(=O)[C@@H]1C[C@@H]2CCCC[C@@H]2N1C(=O)[C@H](CC(C)(C)C)NC(=O)c1ccc(CNC(=O)[C@H](NC(=O)[C@H](N)Cc2ccccc2)C(C)(C)O)cc1)C(=O)O (stereo partly drawn) [compound 101, (2S)-2-(4-((2S,3aS,7aS)-1-((S)-2-(4-(((R)-2-((R)-2-amino-3-phenylpropanamido)-3-hydroxy-3-methylbutanamido)methyl)benzamido)-4,4-dimethylpentanoyl)octahydro-1H-indole-2-carboxamido)-3-hydroxybutanamido)-4,4-dimethylpentanoic acid.] (H-[dF][dVal(3-OH)][4Amb][tBuAla][Oic][X1][tBuAla]-OH)
Aggregation at 1mM [1]: weak signal | logD [2]: 0.52 | inhibition at 0.25 µM [3]: 41% | half-time uptake t1/2 [4]: 9.58 ± 0.09 min | penetration of the cell membrane [4]: able to penetrate the cell membrane without the addition of a cell internalization signal | remaining at 1.5 h ([5]; human, plasma): 87% | remaining at 20 h ([5]; human, plasma): 85% | storage stability [6]: stable

C=C(C)C[C@H](NC(=O)c1ccc(CNC(=O)CC(O)CN)cc1)C(=O)N1[C@H](C(=O)NCC(O)CC(=O)N[C@@H](CC(C)(C)C)C(=O)O)C[C@@H]2CCCC[C@@H]21 (stereo partly drawn) [compound 104, (2S)-2-(4-((2S,3aS,7aS)-1-((2S)-2-(4-((4-amino-3-hydroxybutanamido)methyl)benzamido)-4-methylpent-4-enoyl)octahydro-1H-indole-2-carboxamido)-3-hydroxybutanamido)-4,4-dimethylpentanoic acid.]
Aggregation at 1mM [1]: weak signal | logD [2]: -0.3 | inhibition at 0.25 µM [3]: 40% | half-time uptake t1/2 [4]: 8.56 ± 0.48 min

C=C(C)C[C@H](NC(=O)[C@@H](NC(=O)[C@@H]1CCCN1C(=O)[C@H](CC(C)(C)C)NC(=O)[C@H](CCC(=O)O)NC(=O)[C@H](NC(=O)[C@H](N)Cc1ccccc1)C(C)(C)O)[C@@H](C)O)C(N)=O [compound 044, (S)-4-((R)-2-((R)-2-amino-3-phenylpropanamido)-3-hydroxy-3-methylbutanamido)-5-(((S)-1-((S)-2-(((2S,3R)-1-(((S)-1-amino-4-methyl-1-oxopent-4-en-2-yl)amino)-3-hydroxy-1-oxobutan-2-yl)carbamoyl)pyrrolidin-1-yl)-4,4-dimethyl-1-oxopentan-2-yl)amino)-5-oxopentanoic acid] (H-[dF][dVal(3-OH)]E[tBuAla]PT[Leu(4,5-dehydro)]-NH2)
Aggregation at 1mM [1]: weak signal | logD [2]: -0.59 | inhibition at 0.25 µM [3]: 51%

C=C(C)C[C@@H]1NC(=O)[C@](C)(NC(=O)c2ccc(CNC(=O)CC(O)CN)cc2)CCC/C=C\CCC[C@@](C)(C(=O)N[C@H](CC(C)(C)C)C(=O)O)NC(=O)CC(O)CNC(=O)[C@@H]2C[C@@H]3CCCC[C@@H]3N2C1=O (stereo partly drawn) [compound 107, (2R)-2-((8S,17R,20S,22aS,26aS,27aS,Z)-17-(4-((4-amino-3-hydroxybutanamido)methyl)benzamido)-4-hydroxy-8,17-dimethyl-20-(2-methylallyl)-1,6,18,21-tetraoxo 2,3,4,5,6,7,8,9,10,11,14,15,16,17,18,19,20,21,22a,23,24,25,26,26a,27,27a-hexacosahydro-1H-[1,4,7,12]tetraazacyclotricosino[4,5-a]indole-8-carboxamido)-4,4-dimethylpentanoic acid] ({X3-4Amb}-[R5][Leu(4,5-dehydro)][Oic][X1][S5][d(tBuAla)]-OH; staple (Z) 1-5)
Aggregation at 1mM [1]: weak signal | logD ([2]; shake-flask n-octanol/phosphate buffer, mutually saturated, shaken 1 hour at room temperature, read-out: Log P (Octanol/Water)): 0.51 | inhibition at 0.25 µM [3]: 65% | uptake, percentage of the maximal values obtained following saponin treatment ([4]; 5’6-FAM-labeled compounds, HLMVECs, confocal live-cell imaging over 30 min, mean ± SEM, n = 16–45 cells per group): 92.5 ± 5.0% | half-time uptake t1/2 ([4]; 5’6-FAM-labeled compounds, HLMVECs, confocal live-cell imaging, n = 3 independent experiments): 0.21 ± 0.40 min | penetration of the cell membrane ([4]; 5’6-FAM-labeled compounds, HLMVECs, no cell internalization signal): able to penetrate the cell membrane without the addition of a cell internalization signal | remaining at 1.5 h ([5]; human plasma, 37 °C, 1.5 hr, perchloric acid (60%) precipitation, LC-MS/MS, read-out: compound remaining in human plasma): 87% | remaining at 20 h ([5]; human plasma, 37 °C, 20 hr, perchloric acid (60%) precipitation, LC-MS/MS, read-out: compound remaining in human plasma): 65% | amount of peptide remaining after storage ([6]; 4 °C): 88% | amount of peptide remaining after storage ([6]; 37 °C): 85% | amount of peptide remaining after storage ([6]; 60 °C): 85% | amount of peptide remaining after storage ([6]; -20 °C): 94%

FTEIPTI [compound 000, (S)-4-((2S,3R)-2-((S)-2-amino-3-phenylpropanamido)-3-hydroxybutanamido)-5-(((2S,3S)-1-((S)-2-(((2S,3R)-1-(((1S,2S)-1-carboxy-2-methylbutyl)amino)-3-hydroxy-1-oxobutan-2-yl)carbamoyl)pyrrolidin-1-yl)-3-methyl-1-oxopentan-2-yl)amino)-5-oxopentanoic acid, reference compound]
Log P (Octanol/Water) [2]: 0.75 | Competitive Binding at 250nM (% Inhibition) [3]: no inhibition | Competitive Binding at 250nM (% Inhibition) ([3]; listed as EBIN): did not | half-time uptake t1/2 [4]: 2.50 ± 0.06 min

CC[C@H](C)[C@H](NC(=O)[C@@H](NC(=O)[C@@H]1CCCN1C(=O)[C@@H](NC(=O)[C@H](CCC(=O)O)NC(=O)[C@@H](NC(=O)[C@H](N)Cc1ccccc1)[C@@H](C)O)[C@@H](C)CC)[C@@H](C)O)C(=O)O [compound 004, (S)-4-((2S,3R)-2-((R)-2-amino-3-phenylpropanamido)-3-hydroxybutanamido)-5-(((2S,3S)-1-((S)-2-(((2S,3R)-1-(((1S,2S)-1-carboxy-2-methylbutyl)amino)-3-hydroxy-1-oxobutan-2-yl)carbamoyl)pyrrolidin-1-yl)-3-methyl-1-oxopentan-2-yl)amino)-5-oxopentanoic acid] (H-[dF]TEIPTI-OH)
Aggregation at 1mM [1]: 0.35 | logD [2]: -0.81 | inhibition at 0.25 µM [3]: 39%

CCCCCCCCCCCCCC(=O)N[C@@H](Cc1ccccc1)C(=O)N[C@H](C(=O)N[C@@H](CCC(=O)O)C(=O)N[C@H](C(=O)N1CCC[C@H]1C(=O)N[C@H](C(=O)N[C@H](C(=O)O)[C@@H](C)CC)[C@@H](C)O)[C@@H](C)CC)[C@@H](C)O [Myr-EBIN, reference compound] (Myristoyl-FTEIPTI-OH)
remaining at 1.5 h ([5]; human, plasma): 105% | remaining at 20 h ([5]; human, plasma): 53%
